Results from ChEMBL document CHEMBL3580659, “One-pot multicomponent synthesis of indole incorporated thiazolylcoumarins and their antibacterial, anticancer and DNA cleavage studies” (2015).

Columns and labels:
Format in all cases: functional
RPMI-8226 = assay: Cytotoxicity against human RPMI8226 cells assessed as cell growth level at 100 nM after 48 hrs by sulforhodamine B assay
SK-MEL-28 = assay: Cytotoxicity against human SK-MEL-28 cells assessed as cell growth level at 10 nM after 48 hrs by sulforhodamine B assay
PC-3 [1] = assay: Cytotoxicity against human PC3 cells assessed as cell growth level at 100 nM after 48 hrs by sulforhodamine B assay
BT-549 [2] = assay: Cytotoxicity against human BT549 cells assessed as cell growth level at 100 uM after 48 hrs by sulforhodamine B assay
MDA-MB-468 [3] = assay: Cytotoxicity against human MDA-MB-468 cells assessed as cell growth level at 100 nM after 48 hrs by sulforhodamine B assay
MOLT-4 = assay: Cytotoxicity against human MOLT4 cells after 48 hrs by sulforhodamine B assay; settings: MOLT-4, 48 h
OVCAR-8 = assay: Cytotoxicity against human OVCAR8 cells after 48 hrs by sulforhodamine B assay; settings: OVCAR-8, 48 h
UACC-62 [4] = assay: Cytotoxicity against human UACC62 cells assessed as cell growth level at 10 uM after 48 hrs by sulforhodamine B assay
M14 = assay: Cytotoxicity against human M14 cells assessed as cell growth level at 10 uM after 48 hrs by sulforhodamine B assay
HL-60(TB) = assay: Cytotoxicity against human HL-60(TB) cells assessed as cell growth level at 1 uM after 48 hrs by sulforhodamine B assay
MDA-MB-468 [5] = assay: Cytotoxicity against human MDA-MB-468 cells assessed as cell growth level at 10 uM after 48 hrs by sulforhodamine B assay
SF-539 = assay: Cytotoxicity against human SF539 cells assessed as cell growth level at 1 uM after 48 hrs by sulforhodamine B assay
HOP-92 = assay: Cytotoxicity against human HOP92 cells assessed as cell growth level at 1 uM after 48 hrs by sulforhodamine B assay
SW-620 = assay: Cytotoxicity against human SW620 cells assessed as cell growth level at 10 nM after 48 hrs by sulforhodamine B assay
KM12 [6] = assay: Cytotoxicity against human KM12 cells assessed as cell growth level at 10 uM after 48 hrs by sulforhodamine B assay
SF-268 [7] = assay: Cytotoxicity against human SF268 cells assessed as cell growth level at 10 uM after 48 hrs by sulforhodamine B assay
SF-295 = assay: Cytotoxicity against human SF295 cells assessed as cell growth level at 10 nM after 48 hrs by sulforhodamine B assay
SK-MEL-2 = assay: Cytotoxicity against human SK-MEL-2 cells assessed as cell growth level at 100 uM after 48 hrs by sulforhodamine B assay
BT-549 [8] = assay: Cytotoxicity against human BT549 cells assessed as cell growth level at 1 uM after 48 hrs by sulforhodamine B assay
MCF7 = assay: Cytotoxicity against human MCF7 cells assessed as cell growth level at 100 nM after 48 hrs by sulforhodamine B assay
K562 = assay: Cytotoxicity against human K562 cells assessed as cell growth level at 100 nM after 48 hrs by sulforhodamine B assay
BT-549 [9] = assay: Cytotoxicity against human BT549 cells assessed as cell growth level at 10 uM after 48 hrs by sulforhodamine B assay
SN12C = assay: Cytotoxicity against human SN12C cells assessed as cell growth level at 1 uM after 48 hrs by sulforhodamine B assay
NCI-H226 = assay: Cytotoxicity against human NCI-H226 cells after 48 hrs by sulforhodamine B assay; settings: NCI-H226, 48 h
UACC-62 [10] = assay: Cytotoxicity against human UACC62 cells assessed as cell growth level at 100 nM after 48 hrs by sulforhodamine B assay
Malme-3M = assay: Cytotoxicity against human MALME-3M cells assessed as cell growth level at 1 uM after 48 hrs by sulforhodamine B assay
KM12 [11] = assay: Cytotoxicity against human KM12 cells after 48 hrs by sulforhodamine B assay; settings: KM12, 48 h
HOP-62 = assay: Cytotoxicity against human HOP62 cells assessed as cell growth level at 100 uM after 48 hrs by sulforhodamine B assay
HCT-116 = assay: Cytotoxicity against human HCT116 cells after 48 hrs by sulforhodamine B assay; settings: HCT-116, 48 h
A498 = assay: Cytotoxicity against human A498 cells after 48 hrs by sulforhodamine B assay; settings: A498, 48 h
U-251 [12] = assay: Cytotoxicity against human U251 cells after 48 hrs by sulforhodamine B assay; settings: U-251, 48 h
HCC 2998 = assay: Cytotoxicity against human HCC2998 cells assessed as cell growth level at 100 nM after 48 hrs by sulforhodamine B assay
PC-3 [13] = assay: Cytotoxicity against human PC3 cells after 48 hrs by sulforhodamine B assay; settings: PC-3, 48 h
UACC-62 [14] = assay: Cytotoxicity against human UACC62 cells assessed as cell growth level at 100 uM after 48 hrs by sulforhodamine B assay
SF-268 [15] = assay: Cytotoxicity against human SF268 cells assessed as cell growth level at 100 uM after 48 hrs by sulforhodamine B assay
U-251 [16] = assay: Cytotoxicity against human U251 cells assessed as cell growth level at 1 uM after 48 hrs by sulforhodamine B assay
SNB-75 = assay: Cytotoxicity against human SNB75 cells assessed as cell growth level at 100 uM after 48 hrs by sulforhodamine B assay
[17] = read-out: LC50 (the source's name)
[18] = read-out: pLC50 (the source's name) (converted)

O=c1oc2ccccc2cc1-c1csc(N/N=C/c2c[nH]c3ccccc23)n1
Activity (RPMI-8226): 94%
Activity (SK-MEL-28): 94%
Activity (PC-3 [1]): 102%
Activity (BT-549 [2]): -88%
Activity (MDA-MB-468 [3]): 83%
GI50 (MOLT-4; read-out: GI50): 0.4 µM
LC50 (MOLT-4; read-out: LC50): > 100 µM
TGI (MOLT-4; read-out: TGI): 3.27 µM
GI50 (MOLT-4; read-out: pGI50 (converted)): 0.407 µM
LC50 (MOLT-4; read-out: pLC50 (converted)): > 100 µM
TGI (MOLT-4; read-out: pTGI (converted)): 3.24 µM
GI50 (OVCAR-8; read-out: GI50): 1.9 µM
CC50 (OVCAR-8; [17]): > 100 µM
TGI (OVCAR-8; read-out: TGI): 4.56 µM
GI50 (OVCAR-8; read-out: pGI50 (converted)): 1.91 µM
CC50 (OVCAR-8; [18]): > 100 µM
TGI (OVCAR-8; read-out: pTGI (converted)): 4.57 µM
Activity (UACC-62 [4]): 42.96%
Activity (M14): 34.19%
Activity (HL-60(TB)): 26%
Activity (MDA-MB-468 [5]): 2.39%
Activity (SF-539): 87%
Activity (HOP-92): 87%
Activity (SW-620): 98%
Activity (KM12 [6]): -47.67%
Activity (SF-268 [7]): 14.73%
Activity (SF-295): 93%
Activity (SK-MEL-2): -93%
Activity (BT-549 [8]): 58%
Activity (MCF7): 95%
Activity (K562): 110%
Activity (BT-549 [9]): -12.14%
Activity (SN12C): 45%
GI50 (NCI-H226; read-out: GI50): 2.38 µM
CC50 (NCI-H226; [17]): > 100 µM
TGI (NCI-H226; read-out: TGI): 7.7 µM
GI50 (NCI-H226; read-out: pGI50 (converted)): 2.4 µM
CC50 (NCI-H226; [18]): > 100 µM
TGI (NCI-H226; read-out: pTGI (converted)): 7.76 µM
Activity (UACC-62 [10]): 96%
Activity (Malme-3M): 93%
GI50 (KM12 [11]; read-out: GI50): 1.86 µM
CC50 (KM12 [11]; [17]): 9.22 µM
TGI (KM12 [11]; read-out: TGI): 4.14 µM
GI50 (KM12 [11]; read-out: pGI50 (converted)): 1.86 µM
CC50 (KM12 [11]; [18]): 9.12 µM
TGI (KM12 [11]; read-out: pTGI (converted)): 4.17 µM
Activity (HOP-62): -24%
GI50 (HCT-116; read-out: GI50): 1.6 µM
CC50 (HCT-116; [17]): 6.49 µM
TGI (HCT-116; read-out: TGI): 3.22 µM
GI50 (HCT-116; read-out: pGI50 (converted)): 1.58 µM
CC50 (HCT-116; [18]): 6.46 µM
TGI (HCT-116; read-out: pTGI (converted)): 3.24 µM
GI50 (A498; read-out: GI50): 2.21 µM
CC50 (A498; [17]): > 100 µM
TGI (A498; read-out: TGI): 8.2 µM
GI50 (A498; read-out: pGI50 (converted)): 2.19 µM
CC50 (A498; [18]): > 100 µM
TGI (A498; read-out: pTGI (converted)): 8.13 µM
GI50 (U-251 [12]; read-out: GI50): 1.75 µM
CC50 (U-251 [12]; [17]): 77.7 µM
TGI (U-251 [12]; read-out: TGI): 5.6 µM
GI50 (U-251 [12]; read-out: pGI50 (converted)): 1.74 µM
CC50 (U-251 [12]; [18]): 77.6 µM
TGI (U-251 [12]; read-out: pTGI (converted)): 5.62 µM
Activity (HCC 2998): 97%
GI50 (PC-3 [13]; read-out: GI50): 0.828 µM
CC50 (PC-3 [13]; [17]): 7.63 µM
TGI (PC-3 [13]; read-out: TGI): 2.66 µM
GI50 (PC-3 [13]; read-out: pGI50 (converted)): 0.832 µM
CC50 (PC-3 [13]; [18]): 7.59 µM
TGI (PC-3 [13]; read-out: pTGI (converted)): 2.63 µM
Activity (UACC-62 [14]): -27%
Activity (SF-268 [15]): -21%
Activity (U-251 [16]): 103%
Activity (SNB-75): -53%
